Assay [1] deals with T1, recombinant human MNL phosphodiesterase type IV B (Homo sapiens, UniProt Q07343).
T1 construct: made in house; host or cells: insect cells infected with recombinant baculovirus
Put plainly: Inhibition of recombinant human mononuclear lymphocyte (MNL) phosphodiesterase type IV B produced in insect cells with a baculovirus vector. To be noted: 0.8 μM 3H-cAMP, pH 8, 37° C., 10 min; calculated graphically. In kind it is biochemical. The procedure: Inhibition of recombinant human mononuclear lymphocyte (MNL) phosphodiesterase type IV B produced in insect cells with a baculovirus vector, The alleviating and/or curing effect of the instant compounds on allergic and atopic diseases was assessed by an in vitro assay system to detect an inhibiting effect on the recombinant human MNL phosphodiesterase type IV B.
Seventy-two hours after infection with recombinant baculovirus, the insect cells were harvested and pelleted at 500 g for 5 minutes. The cells were lysed in 10 ml lysis-buffer consisting of 20 mM Tris, 10 mM EGTA, 2 mM Na2 EDTA, 1% Triton-X-100, 1 mM Na3 VO4, 10 mM NaF, 2 μg/ml of leupeptine, pepstatine and aprotinine, 0.3 μg/ml benzamidine and 100 μg/ml TPCK pH 7.5. After 5 minutes on ice, solubilized cells were centrifuged at 4000 rpm for 15 minutes at 4° C. The resulting supernatant was filtered through a 0.45 μm filter (Millipore) and brought to TBS buffer (50 mM Tris, 150 mM NaCl pH 7.4).
The supernatant containing phosphodiesterase (PDE) type IV B, was subsequently loaded onto a 5 ml anti-FLAG-M2 affinity gel column, previously activated with 5 ml 100 mM glycine pH 3.5 and equilibrated with 20 ml 50 mM Tris, 150 mM NaCl pH 7.4. After washing the column with equilibration buffer, PDE IV was eluted in 1.5 ml fractions containing 37.5 μl 1M Tris pH 8. The fractions were dialyzed overnight against 20 mM Tris, 2 mM Na2 EDTA and 400 mM NaCl pH 7.5 and tested for PDE IV activity. Indentification was done on SDS PAGE and Western Blot (anti-FLAG-M2). Active fractions were pooled, brought to 10% glycerol and stored at -70° C.
The incubation mixture (pH 8) (200 μl) contained 20 mM Tris, 10 mM magnesium sulphate, 0.8 μM ^3 H-cAMP (310 mCi/mmole) and the phosphodiesterase type IV, the amount depending on the enzymatic activity. […]
The inhibiting effect of the present compounds on recombinant human MNL phosphodiesterase PDE IV B was measured at different concentrations of the instant compounds. The IC50 values (expressed in M) were calculated graphically from the thus obtained inhibition values.

Assay [2] relates to Dextran-induced oedema formation in mouse ear. Put plainly: Dextran-induced oedema formation in mouse ear. In kind it is in vivo, Male Swiss mice. Conditions: 5 mg/kg, oral, one hour before intravenous dextran T500 + pontamine sky-blue dye; compared with background extravasation. The procedure:
Dextran-induced oedema formation in mouse ear.
Systemic injection of dextran T500 in normal, non-sensitized mice elicits increased vascular permeability, leading to extravasation and oedema of the extremities. When dextran is injected together with a blue dye, blueing of the ears is the most prominent feature of oedematous response.
Male Swiss mice weighing 24-26 g were orally pretreated with the test compound dissolved in PEG-200 at different concentrations or solvent. One hour later, the mice were given an intravenous injection with an isotonic saline solution containing 12 mg/ml dextran T500 and 2.6 mg/ml pontamine sky-blue dye, in a volume of 0.1 ml per 10 g body weight. One hour and forty-five minutes later, the animals are sacrificed by ether and their ears removed. Extraction and quantification of the extravasated dye is done as described by Van Wauwe and Goossens (Drug Dev. Res. 1986, 8, 213-218).
The extravasation of the dye is characterized by the blueing value which is defined as the concentration of the extracted dye in both ears. The background blueing value was determined once as the mean blueing value obtained by injecting a group of mice with a saline solution containing only dextran T500 and the blue dye. Table 1 lists the percentage inhibition of the extravasation of the dye when compared with the background extravasation of the dye when the test compound was administered at a dose of 5 mg/kg.

T1 sequence (Q07343 whole entry): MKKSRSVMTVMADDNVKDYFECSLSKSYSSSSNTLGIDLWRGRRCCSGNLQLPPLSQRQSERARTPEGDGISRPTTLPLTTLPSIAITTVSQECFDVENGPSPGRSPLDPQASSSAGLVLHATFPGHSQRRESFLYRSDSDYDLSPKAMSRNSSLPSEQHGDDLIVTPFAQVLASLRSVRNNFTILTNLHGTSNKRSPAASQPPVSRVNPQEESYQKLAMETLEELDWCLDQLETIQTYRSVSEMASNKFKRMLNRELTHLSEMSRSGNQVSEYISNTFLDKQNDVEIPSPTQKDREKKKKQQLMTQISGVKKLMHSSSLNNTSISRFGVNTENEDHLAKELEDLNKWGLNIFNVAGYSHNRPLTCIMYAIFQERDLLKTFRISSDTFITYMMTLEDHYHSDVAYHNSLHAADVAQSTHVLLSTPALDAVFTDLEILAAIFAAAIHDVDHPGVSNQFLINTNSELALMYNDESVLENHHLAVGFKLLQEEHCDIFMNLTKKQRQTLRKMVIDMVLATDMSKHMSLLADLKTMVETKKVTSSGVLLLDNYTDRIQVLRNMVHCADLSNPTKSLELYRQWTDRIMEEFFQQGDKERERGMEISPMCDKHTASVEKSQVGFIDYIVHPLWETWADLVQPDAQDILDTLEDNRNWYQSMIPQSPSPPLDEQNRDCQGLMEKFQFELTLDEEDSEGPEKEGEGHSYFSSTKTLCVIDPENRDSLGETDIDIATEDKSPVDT

One may read the IC50 as the midpoint of a concentration-inhibition curve. Take `COc1ccc(/C(=C/n2cc[nH]c2=O)c2ccccc2)cc1OC1CCCC1` [Compound 2, (E)-1-[2-[3-(cyclopentyloxy)-4-methoxyphenyl]-2-phenylethenyl]-1,3-dihydro-2H-imidazol-2-one]: in assay [1], the IC50 was less than 1000 nM. Besides, the “% inhibition of the extravasation of the dye” value (from here on “% inhibition”) in assay [2] is reported as 15.5%.

On to `CCOC(=O)C/C(=C\n1cc[nH]c1=O)c1ccc(OC)c(OC2CCCC2)c1` [Compound 4, ethyl (E)-3-(cyclopentyloxy)-β-[(2,3dihydro-2-oxo-1H-imidazol-1-yl)methylene]-4methoxybenzene-propanoate], for which, in assay [1], the IC50 was less than 1000 nM. For the same compound, in assay [2], the “% inhibition” value is reported as 25.9%.

Consider `COc1ccc(/C(=C\n2cc[nH]c2=O)CC(=O)O)cc1OC1CCCC1` [Compound 7, (Z)-3-(cyclopentyloxy)-β-[(2,3-dihydro-2-oxo-1H-imidazol-1-yl)methylene]4-methoxybenzenepropanoic acid], for which the “% inhibition” value in assay [2] stood at 49.9%.

On to `COc1ccc(C(=CN2CCNC2=O)c2ccccc2)cc1OC` [Compound 8, 1-[2-(3,4-dimethoxyphenyl)-2-phenylethenyl]-2-imidazolidinone], for which the “% inhibition” value in assay [2] is listed as 17.9%.

Take `COc1ccc(C(=CN2CCN(C(C)=O)C2=O)c2ccccc2)cc1OC` [Compound 9, 1-acetyl-3-[2-(3,4dimethoxyphenyl)-2-phenylethenyl]-2-imidazolidinone]: the “% inhibition” value in assay [2] was determined as 11.1%.

As for `COc1ccc(/C(=C/n2ccn(C(c3ccccc3)c3ccccc3)c2=O)c2ccccc2)cc1OC1CCCC1` [Compound 10, (E)-1-[2-[3-(cyclopentyloxy)-4-methoxyphenyl]-2-phenylethenyl]-3-(diphenylmethyl)-1,3dihydro-2H-imidazol-2-one], the “% inhibition” value in assay [2] is on record as 40.1%.

Take `COc1ccc(/C(=C\n2ccn(C(c3ccccc3)c3ccccc3)c2=O)c2ccccc2)cc1OC1CCCC1` [Compound 11, (Z)-1-[2-[3-(cyclopentyloxy)-4-methoxyphenyl]-2-phenylethenyl]-3-(diphenylmethyl)-1,3-dihydro-2H-imidazol-2-one]: the “% inhibition” value in assay [2] was 19.3%.

Turning to `COc1ccc(/C(C)=C\n2ccn(C(c3ccccc3)c3ccccc3)c2=O)cc1OC1CCCC1` [Compound 12, (Z)-1-[2-[3-(cyclopentyloxy)-4-methoxyphenyl]-1-propenyl]-3-(diphenylmethyl)-2H-imidazol-2-one], the IC50 in assay [1] is less than 1000 nM.

Source of the values: US5952510A, “1,3-dihydro-1-(phenylalkenyl)-2H-imidazol-2-one derivatives having PDE IV and cytokine inhibiting activity” (Janssen Pharmaceutica, N.V., priority 1995, dated 1999).
